{"source": "paper PMC5053573", "about": "“Structure-Based Design of Tetrahydroisoquinoline-7-carboxamides as Selective Discoidin Domain Receptor 1 (DDR1) Inhibitors” (Journal of Medicinal Chemistry, 2016)", "experiment_in_all_cases": "biochemical", "details_in_all_cases": "read-out: %Ctrl @ 1000nM", "key": {"[1]": {"target": "PRKCI (Homo sapiens, UniProt P41743)"}, "[2]": {"target": "CSF1R (Homo sapiens, UniProt P07333)"}, "[3]": {"target": "FLT3(R834Q) (Homo sapiens, UniProt P36888, R834Q)"}, "[4]": {"target": "ALK(L1196M) (Homo sapiens, UniProt Q9UM73, L1196M)"}, "[5]": {"target": "MARK3 (Homo sapiens, UniProt P27448)"}, "[6]": {"target": "FLT3(D835Y) (Homo sapiens, UniProt P36888, D835Y)"}, "[7]": {"target": "CSNK2A1 (Homo sapiens, UniProt P68400)", "sequence (P68400 whole entry)": "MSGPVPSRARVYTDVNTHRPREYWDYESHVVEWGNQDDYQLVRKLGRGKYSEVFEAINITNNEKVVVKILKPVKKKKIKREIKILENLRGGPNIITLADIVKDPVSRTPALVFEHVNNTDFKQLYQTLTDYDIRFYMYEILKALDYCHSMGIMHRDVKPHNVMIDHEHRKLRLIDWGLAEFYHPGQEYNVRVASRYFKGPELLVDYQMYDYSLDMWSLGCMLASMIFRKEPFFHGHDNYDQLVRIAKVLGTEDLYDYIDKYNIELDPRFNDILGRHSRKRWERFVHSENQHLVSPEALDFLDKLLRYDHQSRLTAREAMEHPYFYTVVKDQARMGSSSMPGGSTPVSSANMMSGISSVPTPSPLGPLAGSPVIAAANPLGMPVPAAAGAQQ"}, "[8]": {"target": "INSRR (Homo sapiens, UniProt P14616)", "sequence (P14616 whole entry)": "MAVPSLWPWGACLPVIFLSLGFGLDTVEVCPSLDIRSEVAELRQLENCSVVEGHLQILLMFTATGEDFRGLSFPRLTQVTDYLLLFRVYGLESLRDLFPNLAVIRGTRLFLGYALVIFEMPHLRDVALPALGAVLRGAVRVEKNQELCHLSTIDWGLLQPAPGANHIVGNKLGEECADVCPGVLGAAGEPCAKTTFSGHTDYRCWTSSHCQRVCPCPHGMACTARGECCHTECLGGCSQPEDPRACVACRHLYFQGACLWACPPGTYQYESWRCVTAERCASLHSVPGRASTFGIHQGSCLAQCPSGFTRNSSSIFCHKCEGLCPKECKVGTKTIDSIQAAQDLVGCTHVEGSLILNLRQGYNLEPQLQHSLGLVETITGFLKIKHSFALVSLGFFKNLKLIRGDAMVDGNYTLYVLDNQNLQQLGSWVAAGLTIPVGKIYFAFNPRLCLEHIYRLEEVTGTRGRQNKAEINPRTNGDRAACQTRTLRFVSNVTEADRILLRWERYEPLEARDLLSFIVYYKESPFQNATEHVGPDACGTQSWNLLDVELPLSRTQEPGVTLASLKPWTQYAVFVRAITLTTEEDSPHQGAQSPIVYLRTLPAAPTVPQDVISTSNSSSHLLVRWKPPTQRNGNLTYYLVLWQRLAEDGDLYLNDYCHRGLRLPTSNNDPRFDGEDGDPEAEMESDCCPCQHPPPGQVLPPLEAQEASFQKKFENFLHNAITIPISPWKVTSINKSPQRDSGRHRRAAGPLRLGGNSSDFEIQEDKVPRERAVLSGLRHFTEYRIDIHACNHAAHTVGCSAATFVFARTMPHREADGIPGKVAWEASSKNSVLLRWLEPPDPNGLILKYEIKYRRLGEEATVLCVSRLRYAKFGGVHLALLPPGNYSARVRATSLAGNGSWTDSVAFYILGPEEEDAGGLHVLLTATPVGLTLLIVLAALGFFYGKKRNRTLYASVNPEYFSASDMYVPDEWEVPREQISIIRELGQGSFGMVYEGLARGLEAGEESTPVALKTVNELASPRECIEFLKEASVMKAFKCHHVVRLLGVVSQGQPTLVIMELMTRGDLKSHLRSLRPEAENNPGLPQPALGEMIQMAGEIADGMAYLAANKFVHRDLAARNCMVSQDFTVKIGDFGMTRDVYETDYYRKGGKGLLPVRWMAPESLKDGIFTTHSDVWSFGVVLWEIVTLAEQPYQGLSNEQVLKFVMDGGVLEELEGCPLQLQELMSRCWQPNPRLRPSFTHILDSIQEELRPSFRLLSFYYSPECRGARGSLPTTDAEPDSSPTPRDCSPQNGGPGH"}, "[9]": {"target": "RET (Homo sapiens, UniProt P07949)"}, "[10]": {"target": "FGFR4 (Homo sapiens, UniProt P22455)"}, "[11]": {"target": "FLT3(D835H) (Homo sapiens, UniProt P36888, D835H)"}, "[12]": {"target": "T1, MRCKB (Homo sapiens, UniProt Q9Y5S2)", "T1 construct": "gene CDC42BPB"}, "[13]": {"target": "T2, MLCK (Homo sapiens, UniProt Q32MK0)", "T2 construct": "gene MYLK3"}, "[14]": {"target": "BRSK2 (Homo sapiens, UniProt Q8IWQ3)"}, "[15]": {"target": "PIM3 (Homo sapiens, UniProt Q86V86)"}, "[16]": {"target": "KIT(V559D,V654A) (Homo sapiens, UniProt P10721, V559D/V654A)"}, "[17]": {"target": "IGF1R (Homo sapiens, UniProt P08069)"}, "[18]": {"target": "AKT2 (Homo sapiens, UniProt P31751)"}, "[19]": {"target": "LIMK2 (Homo sapiens, UniProt P53671)"}, "[20]": {"target": "BRSK1 (Homo sapiens, UniProt Q8TDC3)"}, "[21]": {"target": "CLK1 (Homo sapiens, UniProt P49759)"}, "[22]": {"target": "T3, RSK2(Kin.Dom.1-N-terminal) (Homo sapiens, UniProt P51812)", "T3 construct": "gene RPS6KA3"}, "[23]": {"target": "MET (Homo sapiens, UniProt P08581)"}, "[24]": {"target": "KIT(D816V) (Homo sapiens, UniProt P10721, D816V)"}, "[25]": {"target": "T4, MKK7 (Homo sapiens, UniProt O14733)", "T4 construct": "gene MAP2K7"}, "[26]": {"target": "T5, MEK2 (Homo sapiens, UniProt P36507)", "T5 construct": "gene MAP2K2"}, "[27]": {"target": "T6, ERK1 (Homo sapiens, UniProt P27361)", "T6 construct": "gene MAPK3"}, "[28]": {"target": "RPS6KA5(Kin.Dom.1-N-terminal) (Homo sapiens, UniProt O75582)"}, "[29]": {"target": "MUSK (Homo sapiens, UniProt O15146)", "sequence (O15146 whole entry)": "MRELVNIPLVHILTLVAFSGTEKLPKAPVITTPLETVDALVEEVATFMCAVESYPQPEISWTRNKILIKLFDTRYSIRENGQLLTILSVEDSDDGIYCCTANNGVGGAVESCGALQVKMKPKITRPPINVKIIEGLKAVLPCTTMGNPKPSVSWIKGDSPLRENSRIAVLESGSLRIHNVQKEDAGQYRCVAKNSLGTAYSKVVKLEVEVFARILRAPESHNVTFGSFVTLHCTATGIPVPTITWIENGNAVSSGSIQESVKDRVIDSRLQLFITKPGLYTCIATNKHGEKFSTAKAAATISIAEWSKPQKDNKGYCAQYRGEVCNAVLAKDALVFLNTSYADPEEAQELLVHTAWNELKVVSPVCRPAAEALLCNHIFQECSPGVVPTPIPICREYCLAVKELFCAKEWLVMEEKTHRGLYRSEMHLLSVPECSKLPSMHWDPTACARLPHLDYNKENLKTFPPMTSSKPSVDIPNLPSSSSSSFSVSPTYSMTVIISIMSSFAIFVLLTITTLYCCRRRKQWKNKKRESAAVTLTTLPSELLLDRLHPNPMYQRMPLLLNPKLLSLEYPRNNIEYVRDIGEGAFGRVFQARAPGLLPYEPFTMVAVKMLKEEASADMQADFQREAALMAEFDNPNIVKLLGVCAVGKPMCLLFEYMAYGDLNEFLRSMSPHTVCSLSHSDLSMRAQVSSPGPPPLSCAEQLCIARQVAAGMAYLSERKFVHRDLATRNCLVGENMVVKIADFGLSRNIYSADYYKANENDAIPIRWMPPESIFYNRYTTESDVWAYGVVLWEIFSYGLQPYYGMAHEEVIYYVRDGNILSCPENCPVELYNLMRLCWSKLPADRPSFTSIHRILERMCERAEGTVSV"}, "[30]": {"target": "TAOK3 (Homo sapiens, UniProt Q9H2K8)"}, "[31]": {"target": "LATS2 (Homo sapiens, UniProt Q9NRM7)", "sequence (Q9NRM7 whole entry)": "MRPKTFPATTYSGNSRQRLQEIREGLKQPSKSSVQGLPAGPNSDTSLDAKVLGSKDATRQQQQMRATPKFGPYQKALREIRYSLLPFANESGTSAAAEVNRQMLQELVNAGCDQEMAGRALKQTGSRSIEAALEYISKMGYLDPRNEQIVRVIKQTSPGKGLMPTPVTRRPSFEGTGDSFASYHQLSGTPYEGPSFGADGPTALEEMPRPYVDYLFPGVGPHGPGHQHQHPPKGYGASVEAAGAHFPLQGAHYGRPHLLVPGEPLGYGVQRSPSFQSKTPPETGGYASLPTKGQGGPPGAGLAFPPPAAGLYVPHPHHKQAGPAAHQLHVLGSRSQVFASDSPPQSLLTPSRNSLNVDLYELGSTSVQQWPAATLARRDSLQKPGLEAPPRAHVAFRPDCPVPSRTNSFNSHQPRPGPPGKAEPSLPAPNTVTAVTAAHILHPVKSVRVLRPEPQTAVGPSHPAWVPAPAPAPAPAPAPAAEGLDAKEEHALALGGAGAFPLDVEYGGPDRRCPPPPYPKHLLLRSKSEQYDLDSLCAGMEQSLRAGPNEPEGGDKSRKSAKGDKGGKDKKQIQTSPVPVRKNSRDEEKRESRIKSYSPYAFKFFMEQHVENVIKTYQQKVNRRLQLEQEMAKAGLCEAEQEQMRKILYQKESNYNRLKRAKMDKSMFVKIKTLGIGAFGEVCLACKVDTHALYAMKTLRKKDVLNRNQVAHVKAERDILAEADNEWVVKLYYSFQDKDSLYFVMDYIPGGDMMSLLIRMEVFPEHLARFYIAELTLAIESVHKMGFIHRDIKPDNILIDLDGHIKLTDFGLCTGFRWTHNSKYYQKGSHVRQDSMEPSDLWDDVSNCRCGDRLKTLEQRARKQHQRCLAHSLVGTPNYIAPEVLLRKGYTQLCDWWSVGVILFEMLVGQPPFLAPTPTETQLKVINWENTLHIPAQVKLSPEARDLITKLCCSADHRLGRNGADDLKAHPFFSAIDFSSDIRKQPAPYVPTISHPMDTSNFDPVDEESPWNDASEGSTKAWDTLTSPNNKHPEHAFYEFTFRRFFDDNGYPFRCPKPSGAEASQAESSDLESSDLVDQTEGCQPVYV"}, "[32]": {"target": "CDK4 (Homo sapiens, UniProt P11802)"}, "[33]": {"target": "CASK (Homo sapiens, UniProt O14936)", "sequence (O14936 whole entry)": "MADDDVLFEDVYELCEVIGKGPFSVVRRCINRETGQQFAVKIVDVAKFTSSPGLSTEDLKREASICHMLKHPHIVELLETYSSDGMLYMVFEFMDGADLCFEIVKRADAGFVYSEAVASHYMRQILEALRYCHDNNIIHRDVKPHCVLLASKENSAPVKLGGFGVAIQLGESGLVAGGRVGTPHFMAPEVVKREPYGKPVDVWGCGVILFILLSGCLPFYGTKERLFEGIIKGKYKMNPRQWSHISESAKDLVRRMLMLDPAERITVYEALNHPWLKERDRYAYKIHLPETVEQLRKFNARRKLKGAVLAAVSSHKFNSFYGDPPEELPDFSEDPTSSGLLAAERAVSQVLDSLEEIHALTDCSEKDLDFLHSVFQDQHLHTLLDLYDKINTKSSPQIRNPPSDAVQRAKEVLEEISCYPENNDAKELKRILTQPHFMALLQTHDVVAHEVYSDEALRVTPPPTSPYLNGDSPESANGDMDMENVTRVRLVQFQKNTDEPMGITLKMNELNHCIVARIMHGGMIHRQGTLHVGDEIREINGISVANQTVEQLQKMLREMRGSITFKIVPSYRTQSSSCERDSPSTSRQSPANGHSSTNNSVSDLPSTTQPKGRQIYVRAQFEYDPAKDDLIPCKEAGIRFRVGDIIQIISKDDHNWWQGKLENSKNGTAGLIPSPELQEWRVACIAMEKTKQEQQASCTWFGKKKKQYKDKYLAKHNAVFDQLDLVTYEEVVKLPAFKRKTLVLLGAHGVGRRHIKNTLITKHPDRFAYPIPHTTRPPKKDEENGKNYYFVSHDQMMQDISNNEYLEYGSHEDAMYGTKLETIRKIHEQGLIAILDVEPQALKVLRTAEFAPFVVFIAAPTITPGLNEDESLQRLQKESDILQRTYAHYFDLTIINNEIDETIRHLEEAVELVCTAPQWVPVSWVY"}, "[34]": {"target": "RPS6KA4(Kin.Dom.1-N-terminal) (Homo sapiens, UniProt O75676)"}, "[35]": {"target": "T7, BRK (Homo sapiens, UniProt Q13882)", "T7 construct": "gene PTK6", "T7 sequence (Q13882 whole entry)": "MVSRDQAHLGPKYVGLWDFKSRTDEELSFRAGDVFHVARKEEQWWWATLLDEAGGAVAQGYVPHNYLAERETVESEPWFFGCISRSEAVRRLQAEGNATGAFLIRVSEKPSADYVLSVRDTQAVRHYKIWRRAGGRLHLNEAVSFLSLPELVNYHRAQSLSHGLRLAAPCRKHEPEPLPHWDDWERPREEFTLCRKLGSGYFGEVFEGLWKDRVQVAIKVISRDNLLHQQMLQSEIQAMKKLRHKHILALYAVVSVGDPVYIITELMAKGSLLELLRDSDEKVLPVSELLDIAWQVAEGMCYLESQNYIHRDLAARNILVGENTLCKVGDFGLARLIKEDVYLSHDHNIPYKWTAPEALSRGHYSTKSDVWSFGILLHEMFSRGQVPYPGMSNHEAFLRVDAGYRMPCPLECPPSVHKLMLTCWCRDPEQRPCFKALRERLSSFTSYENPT"}}}
{"compound": "Cc1cn(-c2cc(NC(=O)c3ccc4c(c3)CN(c3cncnc3)C[C@@H]4C)cc(C(F)(F)F)c2)cn1", "note": "[Compound 6j]", "values": [{"measurement": "remaining activity at 1 µM", "setting": "[1]", "result": 72, "unit": "%"}, {"measurement": "remaining activity at 1 µM", "setting": "[2]", "result": 96, "unit": "%"}, {"measurement": "remaining activity at 1 µM", "setting": "[3]", "result": 86, "unit": "%"}, {"measurement": "remaining activity at 1 µM", "setting": "[4]", "result": 100, "unit": "%"}, {"measurement": "remaining activity at 1 µM", "setting": "[5]", "result": 94, "unit": "%"}, {"measurement": "remaining activity at 1 µM", "setting": "[6]", "result": 40, "unit": "%"}, {"measurement": "remaining activity at 1 µM", "setting": "[7]", "result": 100, "unit": "%"}, {"measurement": "remaining activity at 1 µM", "setting": "[8]", "result": 100, "unit": "%"}, {"measurement": "remaining activity at 1 µM", "setting": "[9]", "result": 94, "unit": "%"}, {"measurement": "remaining activity at 1 µM", "setting": "[10]", "result": 85, "unit": "%"}, {"measurement": "remaining activity at 1 µM", "setting": "[11]", "result": 59, "unit": "%"}, {"measurement": "remaining activity at 1 µM", "setting": "[12]", "result": 94, "unit": "%"}, {"measurement": "remaining activity at 1 µM", "setting": "[13]", "result": 92, "unit": "%"}, {"measurement": "remaining activity at 1 µM", "setting": "[14]", "result": 94, "unit": "%"}, {"measurement": "remaining activity at 1 µM", "setting": "[15]", "result": 94, "unit": "%"}, {"measurement": "remaining activity at 1 µM", "setting": "[16]", "result": 86, "unit": "%"}, {"measurement": "remaining activity at 1 µM", "setting": "[17]", "result": 100, "unit": "%"}, {"measurement": "remaining activity at 1 µM", "setting": "[18]", "result": 100, "unit": "%"}, {"measurement": "remaining activity at 1 µM", "setting": "[19]", "result": 100, "unit": "%"}, {"measurement": "remaining activity at 1 µM", "setting": "[20]", "result": 98, "unit": "%"}, {"measurement": "remaining activity at 1 µM", "setting": "[21]", "result": 92, "unit": "%"}, {"measurement": "remaining activity at 1 µM", "setting": "[22]", "result": 100, "unit": "%"}, {"measurement": "remaining activity at 1 µM", "setting": "[23]", "result": 100, "unit": "%"}, {"measurement": "remaining activity at 1 µM", "setting": "[24]", "result": 77, "unit": "%"}, {"measurement": "remaining activity at 1 µM", "setting": "[25]", "result": 100, "unit": "%"}, {"measurement": "remaining activity at 1 µM", "setting": "[26]", "result": 100, "unit": "%"}, {"measurement": "remaining activity at 1 µM", "setting": "[27]", "result": 95, "unit": "%"}, {"measurement": "remaining activity at 1 µM", "setting": "[28]", "result": 97, "unit": "%"}, {"measurement": "remaining activity at 1 µM", "setting": "[29]", "result": 31, "unit": "%"}, {"measurement": "remaining activity at 1 µM", "setting": "[30]", "result": 100, "unit": "%"}, {"measurement": "remaining activity at 1 µM", "setting": "[31]", "result": 100, "unit": "%"}, {"measurement": "remaining activity at 1 µM", "setting": "[32]", "result": 98, "unit": "%"}, {"measurement": "remaining activity at 1 µM", "setting": "[33]", "result": 100, "unit": "%"}, {"measurement": "remaining activity at 1 µM", "setting": "[34]", "result": 87, "unit": "%"}, {"measurement": "remaining activity at 1 µM", "setting": "[35]", "result": 84, "unit": "%"}]}
